Test results from US9963467B2, “Boronic acid derivatives and therapeutic uses thereof” (Rempex Pharmaceuticals, Inc., priority 2014, dated 2018).

What was measured:
EC1010 (CMY-6) [1] = assay: Tigemonam potentiation (MPC@4), EC1010; assay type: cell-based; conditions: BLI with tigemonam at 4 μg/mL
OXA-48 = OXA-48 (Klebsiella pneumoniae, UniProt Q6XEC0); assay: Ki, nitrocefin cleavage by purified enzyme, OXA-48; assay type: biochemical; conditions: nitrocefin reporter substrate; read-out: Ki (OXA-48, NCF)
Experimental: (§1) Purified enzymes were mixed with various concentrations of inhibitors in reaction buffer and incubated for 10 min at room temperature. Nitrocefin was added and substrate cleavage profiles were recorded at 490 nm every 10 sec for 10 min.

KP1004 (KPC-2) [2] = assay: Biapenem potentiation (MPC@1), KP1004; conditions: BLI with biapenem at 1 μg/mL
ECL1002 [3] = assay: Aztreonam potentiation (MPC@4), ECL1002; assay type: cell-based; conditions: BLI with aztreonam at 4 μg/mL
ec308 (SHV-5) = assay: Tigemonam potentiation (MPC@4), ec308; assay type: cell-based
ec302 (TEM-10) [4] = assay: Tigemonam potentiation (MPC@4), ec302; assay type: cell-based
KP1009 (CTX-M-15) = assay: Tigemonam potentiation (MPC@4), KP1009; assay type: cell-based; conditions: BLI with tigemonam at 4 μg/mL
ECL1002 [5] = assay: Tigemonam potentiation (MPC@4), ECL1002; assay type: cell-based; conditions: BLI with tigemonam at 4 μg/mL
EC1010 (CMY-6) [6] = assay: organism not typed; assay type: cell-based
KP1010 (SHV-12) = assay: Tigemonam potentiation (MPC@4), KP1010; assay type: cell-based
SHV-12 = SHV-12 (Klebsiella pneumoniae, UniProt P0AD64, E235K/G234S/L31Q); assay: Ki, nitrocefin cleavage by purified enzyme, SHV-12; assay type: biochemical; conditions: nitrocefin reporter substrate; read-out: Ki (SHV-12, NCF)
Experimental: as §1

P99 = P99 (Enterobacter cloacae, UniProt P05364); assay: Ki, nitrocefin cleavage by purified enzyme, P99; assay type: biochemical; conditions: nitrocefin reporter substrate; read-out: Ki (P99, NCF)
Experimental: as §1

CTX-M-14 = CTX-M-14 (Escherichia coli, UniProt Q9L5C7); assay: Ki, nitrocefin cleavage by purified enzyme, CTX-M-14; assay type: biochemical; conditions: nitrocefin reporter substrate; read-out: Ki (CTX-M-14, NCF)
Experimental: as §1

KPC-2 = KPC-2 (Klebsiella pneumoniae, UniProt Q9F663); assay: Ki, nitrocefin cleavage by purified enzyme, KPC-2; assay type: biochemical; conditions: nitrocefin reporter substrate; read-out: Ki (KPC-2, NCF)
Experimental: as §1

KP1005 (CTX-M-14) [7] = assay: Aztreonam potentiation (MPC@4), KP1005; assay type: cell-based; conditions: BLI with aztreonam at 4 μg/mL
ec302 (TEM-10) [8] = assay: Aztreonam potentiation (MPC@4), ec302; assay type: cell-based; conditions: BLI with aztreonam at 4 μg/mL
KP1086 (OXA-48) = assay: Biapenem potentiation (MPC@1), KP1086; conditions: BLI with biapenem at 1 μg/mL
KP1004 (KPC-2) [9] = assay: Aztreonam potentiation (MPC@4), KP1004; assay type: cell-based; conditions: BLI with aztreonam at 4 μg/mL
Pa AmpC = Pa AmpC (Pseudomonas aeruginosa, UniProt P24735); assay: Ki, nitrocefin cleavage by purified enzyme, Pa AmpC; assay type: biochemical; conditions: nitrocefin reporter substrate; read-out: Ki (Pa AmpC, NCF)
Experimental: Ki values of inhibition of purified class A, C and D enzymes were determined spectrophotometrically using nitrocefin as reporter substrate. Purified enzymes were mixed with various concentrations of inhibitors in reaction buffer and incubated for 10 min at room temperature. Nitrocefin was added and substrate cleavage profiles were recorded at 490 nm every 10 sec for 10 min. These experiments confirmed that the described compounds are inhibitors with a broad-spectrum of activity towards various β-lactamases.

KP1005 (CTX-M-14) [10] = assay: Tigemonam potentiation (MPC@4), KP1005; assay type: cell-based; conditions: BLI with tigemonam at 4 μg/mL
[11] = Monomer content of pH adjusted aqueous solutions (LC-UV); assay type: physicochemical; conditions: 1 mg/mL aqueous salt solution, pH adjusted to 7.6 to 8, LC-UV
Experimental: Boronic acid containing compounds are known to undergo oligomerization. The presence of oligomers can greatly complicate drug development, as they represent new chemical species whose content must be controlled and qualified by testing in toxoicology studies. The monomer content of compounds was evaluated by adjusting aqueous solutions to physiological pH at various concentrations. The monomer content of pH adjusted solutions was measured using LC-UV. Test compounds were weighed out into a 1.5 mL Eppendorf tube. A solution of water was prepared in 1.00 mg/mL, 10.0 mg/mL or 100 mg/mL concentrations of the compound based on active fraction. A volume 20 uL was subtracted to allow room for addition of acid or base to adjust pH. The solution pH was measured. The pH was then adjusted through addition of acid or base as necessary until the reading was in the 7.6 to 8 range. A final pH measurement was made after ensuring all the compound was in solution. The solution was injected onto LC-UV in 0.1 uL to 5 uL volume within less than half an hour after the time the sample was prepared. Elution was done using 0.1% TFA in water for mobile phase A and 0.085% TFA in methanol for mobile phase B on an Excel ACE 5 Super C18 2.1×100 mm column at 0.6 ml/min flow rate with 9 min gradient, 3.9 minute hold at 90% B and 18 minute run time. The absorption was measured at 220, 254 and 300 nm with a 4 nm bandwidth.

Sequence of OXA-48 (Q6XEC0 23-265, looked up, species assumed): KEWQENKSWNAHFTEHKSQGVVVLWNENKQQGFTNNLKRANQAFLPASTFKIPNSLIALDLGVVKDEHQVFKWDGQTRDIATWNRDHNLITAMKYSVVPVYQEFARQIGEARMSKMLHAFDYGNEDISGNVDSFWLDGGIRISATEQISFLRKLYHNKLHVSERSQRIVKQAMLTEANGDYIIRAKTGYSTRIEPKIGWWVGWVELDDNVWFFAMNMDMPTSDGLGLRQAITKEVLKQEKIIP
Sequence of CTX-M-14 (Q9L5C7 29-291): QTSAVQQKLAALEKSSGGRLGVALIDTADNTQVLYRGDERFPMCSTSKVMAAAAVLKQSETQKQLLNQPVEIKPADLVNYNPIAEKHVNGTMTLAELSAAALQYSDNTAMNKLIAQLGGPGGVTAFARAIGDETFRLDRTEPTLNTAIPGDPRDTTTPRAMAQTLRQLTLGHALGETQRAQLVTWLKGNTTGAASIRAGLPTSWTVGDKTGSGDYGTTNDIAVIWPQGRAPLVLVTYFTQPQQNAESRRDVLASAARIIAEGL
Sequence of KPC-2 (Q9F663 25-293, looked up, species assumed): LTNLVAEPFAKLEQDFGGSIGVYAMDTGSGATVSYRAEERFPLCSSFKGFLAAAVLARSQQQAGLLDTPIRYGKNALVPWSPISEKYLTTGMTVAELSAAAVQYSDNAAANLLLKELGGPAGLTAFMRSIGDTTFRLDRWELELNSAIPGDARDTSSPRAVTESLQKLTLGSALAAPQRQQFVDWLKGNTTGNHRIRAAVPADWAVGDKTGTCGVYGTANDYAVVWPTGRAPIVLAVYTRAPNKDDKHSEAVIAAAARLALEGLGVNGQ
Sequence of P99 (P05364 21-381): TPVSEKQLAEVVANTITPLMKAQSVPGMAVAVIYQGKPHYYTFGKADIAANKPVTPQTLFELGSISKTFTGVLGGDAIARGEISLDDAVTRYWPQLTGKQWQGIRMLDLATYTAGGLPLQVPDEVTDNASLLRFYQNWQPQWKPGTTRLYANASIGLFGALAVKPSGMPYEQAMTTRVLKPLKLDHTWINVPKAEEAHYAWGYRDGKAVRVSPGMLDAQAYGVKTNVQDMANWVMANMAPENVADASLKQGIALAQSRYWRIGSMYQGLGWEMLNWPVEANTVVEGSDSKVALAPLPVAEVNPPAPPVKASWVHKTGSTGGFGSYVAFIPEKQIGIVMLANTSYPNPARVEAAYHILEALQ
Sequence of SHV-12 (P0AD64 22-286 L31Q/G234S/E235K): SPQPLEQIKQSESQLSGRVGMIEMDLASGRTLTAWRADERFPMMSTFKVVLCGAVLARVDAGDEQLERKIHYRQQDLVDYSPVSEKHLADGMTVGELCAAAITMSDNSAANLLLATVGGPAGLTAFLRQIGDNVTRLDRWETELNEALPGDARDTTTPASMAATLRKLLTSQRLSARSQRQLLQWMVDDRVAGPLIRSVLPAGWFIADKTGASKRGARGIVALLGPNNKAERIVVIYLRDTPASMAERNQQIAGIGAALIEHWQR
Sequence of Pa AmpC (P24735 27-397): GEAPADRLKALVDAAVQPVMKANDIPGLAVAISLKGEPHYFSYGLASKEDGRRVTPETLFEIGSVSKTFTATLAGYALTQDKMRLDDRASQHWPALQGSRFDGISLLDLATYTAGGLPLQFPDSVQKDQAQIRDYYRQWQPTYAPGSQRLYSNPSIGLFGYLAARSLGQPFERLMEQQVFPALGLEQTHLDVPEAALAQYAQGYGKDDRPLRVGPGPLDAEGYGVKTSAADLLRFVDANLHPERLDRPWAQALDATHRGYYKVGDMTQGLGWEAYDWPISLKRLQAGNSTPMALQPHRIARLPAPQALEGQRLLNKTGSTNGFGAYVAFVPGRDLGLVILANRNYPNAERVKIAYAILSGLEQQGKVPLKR

Row | Compound | TIG MPC4 CMY-6 EC1010 (EC1010 (CMY-6) [1]) | Ki (OXA-48) [nM] | BPM MPC1 KP1004 KPC-2 (KP1004 (KPC-2) [2]) | AZT MPC4 ECL1002 (ECL1002 [3]) | TIG MPC4 SHV-5 ec308 (ec308 (SHV-5)) | TIG MPC4 TEM-10 ec302 (ec302 (TEM-10) [4]) | TIG MPC4 CTX-M-15 KP1009 (KP1009 (CTX-M-15)) | TIG MPC4 ECL1002 (ECL1002 [5]) | AZT MPC4 CMY-6 EC1010 (EC1010 (CMY-6) [6]) | TIG MPC4 SHV-12 KP1010 (KP1010 (SHV-12)) | Ki (SHV-12) [nM] | Ki (P99) [nM] | Ki (CTX-M-14) [nM] | Ki (KPC-2) [nM] | AZT MPC4 TEM-10 ec302 (ec302 (TEM-10) [8]) | BPM MPC1 OXA-48 KP1086 (KP1086 (OXA-48)) | AZT MPC4 KPC-2 KP1004 (KP1004 (KPC-2) [9]) | Ki (Pa AmpC) [nM] | TIG MPC4 CTX-M-14 KP1005 (KP1005 (CTX-M-14) [10]) | % Monomer in 1 mg/mL salt solution [11] [%] | further results
1 | O=C(O)CC(=O)N[C@H]1Cc2ccc(F)c(C(=O)O)c2OB1O [Compound 4, (R)-3-(2-carboxyacetamido)-7-fluoro-2-hydroxy-3,4-dihydro-2H-benzo[e][1,2]oxaborinine-8-carboxylic acid] | X (MIC of less than 1 μg/mL) | < 1 | X (MIC of less than 1 μg/mL) | Y (MIC of 1 μg/mL to 10 μg/mL) | Y (key: X: MIC of less than 1 ng/mL; Y: MIC of 1 μg/mL to 10 μg/mL; Z: MIC of greater than 10 μg/mL) | Z (key: X: MIC of less than 1 ng/mL; Y: MIC of 1 μg/mL to 10 μg/mL; Z: MIC of greater than 10 μg/mL) | X (MIC of less than 1 μg/mL) | X (MIC of less than 1 μg/mL) | Y (key: X: MIC of less than 1 ng/mL; Y: MIC of 1 μg/mL to 10 μg/mL; Z: MIC of greater than 10 μg/mL) | Y (key: X: MIC of less than 1 ng/mL; Y: MIC of 1 μg/mL to 10 μg/mL; Z: MIC of greater than 10 μg/mL) | < 1 | > 10 | < 1 | > 10 | Y (MIC of 1 μg/mL to 10 μg/mL) | Z (MIC of greater than 10 μg/mL) | Y (MIC of 1 μg/mL to 10 μg/mL) | > 10 | Y (MIC of 1 μg/mL to 10 μg/mL) |  | AZT MPC4 CTX-M-14 KP1005 (KP1005 (CTX-M-14) [7]): Y (MIC of 1 μg/mL to 10 μg/mL)
2 | CNC(=O)CC(=O)N[C@H]1Cc2ccc(F)c(C(=O)O)c2OB1O [Compound 7, (R)-7-fluoro-2-hydroxy-3-(3-(methylamino)-3-oxopropanamido)-3,4-dihydro-2H-benzo[e][1,2]oxaborinine-8-carboxylic acid] | X (MIC of less than 1 μg/mL) | 1 to 10 | X (MIC of less than 1 μg/mL) | Y (MIC of 1 μg/mL to 10 μg/mL) | X (key: X: MIC of less than 1 μg/mL; Y: MIC of 1 μg/mL to 10 μg/mL; Z: MIC of greater than 10 μg/mL) | Z (key: X: MIC of less than 1 ng/mL; Y: MIC of 1 μg/mL to 10 μg/mL; Z: MIC of greater than 10 μg/mL) | X (MIC of less than 1 μg/mL) | X (MIC of less than 1 μg/mL) | Y (key: X: MIC of less than 1 ng/mL; Y: MIC of 1 μg/mL to 10 μg/mL; Z: MIC of greater than 10 μg/mL) | X (key: X: MIC of less than 1 μg/mL; Y: MIC of 1 μg/mL to 10 μg/mL; Z: MIC of greater than 10 μg/mL) | < 1 | > 10 | < 1 | > 10 | Y (MIC of 1 μg/mL to 10 μg/mL) | Y (MIC of 1 μg/mL to 10 μg/mL) |  | > 10 | Y (MIC of 1 μg/mL to 10 μg/mL) | 97.1 | 
3 | CSCC(=O)N[C@H]1Cc2ccc(SC3CNC3)c(C(=O)O)c2OB1O [Compound 11, (R)-7-(azetidin-3-ylthio)-2-hydroxy-3-(2-(methylthio)acetamido)-3,4-dihydro-2H-benzo oxaborinine-8-carboxylic acid] | X (MIC of less than 1 μg/mL) | 1 to 10 | X (MIC of less than 1 μg/mL) | Y (MIC of 1 μg/mL to 10 μg/mL) | X (key: X: MIC of less than 1 μg/mL; Y: MIC of 1 μg/mL to 10 μg/mL; Z: MIC of greater than 10 μg/mL) | Z (key: X: MIC of less than 1 ng/mL; Y: MIC of 1 μg/mL to 10 μg/mL; Z: MIC of greater than 10 μg/mL) | Y (MIC of 1 μg/mL to 10 μg/mL) | X (MIC of less than 1 μg/mL) | Y (key: X: MIC of less than 1 ng/mL; Y: MIC of 1 μg/mL to 10 μg/mL; Z: MIC of greater than 10 μg/mL) | X (key: X: MIC of less than 1 μg/mL; Y: MIC of 1 μg/mL to 10 μg/mL; Z: MIC of greater than 10 μg/mL) | 1 to 10 | > 10 | 1 to 10 | > 10 | Y (MIC of 1 μg/mL to 10 μg/mL) | Y (MIC of 1 μg/mL to 10 μg/mL) | Y (MIC of 1 μg/mL to 10 μg/mL) | > 10 | X (MIC of less than 1 μg/mL) | 88.0 | 
4 | CSCC(=O)N[C@H]1Cc2ccc(SCC(N)=O)c(C(=O)O)c2OB1O [Compound 22, (R)-7-(2-amino-2-oxoethylthio)-2-hydroxy-3-(2-(methylthio)acetamido)-3,4-dihydro-2H-benzo[e][1,2]oxaborinine-8-carboxylic acid] | X (MIC of less than 1 μg/mL) |  | X (MIC of less than 1 μg/mL) | Y (MIC of 1 μg/mL to 10 μg/mL) | X (key: X: MIC of less than 1 μg/mL; Y: MIC of 1 μg/mL to 10 μg/mL; Z: MIC of greater than 10 μg/mL) | Y (key: X: MIC of less than 1 ng/mL; Y: MIC of 1 μg/mL to 10 μg/mL; Z: MIC of greater than 10 μg/mL) | X (MIC of less than 1 μg/mL) | Y (MIC of 1 μg/mL to 10 μg/mL) | Y (key: X: MIC of less than 1 ng/mL; Y: MIC of 1 μg/mL to 10 μg/mL; Z: MIC of greater than 10 μg/mL) | X (key: X: MIC of less than 1 μg/mL; Y: MIC of 1 μg/mL to 10 μg/mL; Z: MIC of greater than 10 μg/mL) | < 1 | > 10 | < 1 | > 10 | Y (MIC of 1 μg/mL to 10 μg/mL) | Z (MIC of greater than 10 μg/mL) | Y (MIC of 1 μg/mL to 10 μg/mL) | > 10 | X (MIC of less than 1 μg/mL) |  | 
5 | CSCC(=O)N[C@H]1Cc2cc(F)c(F)c(C(=O)O)c2OB1O [Compound 36, (R)-6,7-difluoro-2-hydroxy-3-(2-(methylthio)acetamido)-3,4-dihydro-2H-benzo[e][1,2]oxaborinine-8-carboxylic acid] | X (MIC of less than 1 μg/mL) | < 1 | X (MIC of less than 1 μg/mL) | Y (MIC of 1 μg/mL to 10 μg/mL) | X (key: X: MIC of less than 1 μg/mL; Y: MIC of 1 μg/mL to 10 μg/mL; Z: MIC of greater than 10 μg/mL) | Y (key: X: MIC of less than 1 ng/mL; Y: MIC of 1 μg/mL to 10 μg/mL; Z: MIC of greater than 10 μg/mL) | X (MIC of less than 1 μg/mL) | X (MIC of less than 1 μg/mL) | Y (key: X: MIC of less than 1 ng/mL; Y: MIC of 1 μg/mL to 10 μg/mL; Z: MIC of greater than 10 μg/mL) | X (key: X: MIC of less than 1 μg/mL; Y: MIC of 1 μg/mL to 10 μg/mL; Z: MIC of greater than 10 μg/mL) | < 1 | > 10 | < 1 | > 10 | Y (MIC of 1 μg/mL to 10 μg/mL) | Y (MIC of 1 μg/mL to 10 μg/mL) | Y (MIC of 1 μg/mL to 10 μg/mL) | > 10 | X (MIC of less than 1 μg/mL) |  | 
